Tested on: pKAP1 and pH2AX levels in MDA-MB-468 breast cancer cells
Test: pKAP1 and pH2AX immunoblot, doxorubicin pulse (wash-out) with Compound B-2 in MDA-MB-468 cells
Assay type: cell-based, human
Conditions: 1 μM Compound B-2 + 500 nM doxorubicin pulse; beginning at 1 h doxorubicin exposure, harvested at 8 h
Protocol: Materials and Methods. The human cancer cell lines A549 (CCL-185), DU4475 (HTB-123), MDA-MB-436 (HTB-130), and MDA-MB-468 (HTB-132) were obtained from American Type Culture Collection (ATCC; Manassas, VA). A 10 mM stock solution of Compound B-1 or Compound B-2 was prepared in DMSO and stored at −20° C. Etoposide and doxorubicin were purchased from Sigma-Aldrich (St. Louis, MO).
The A549 human lung cancer cell line was purchased from ATCC and was cultured in DMEM supplemented with 10% fetal bovine serum, 1× non-essential amino acids and 1× Penicillin/Streptomycin (complete medium). Cells were maintained at a subconfluent state by passaging every 2-3 days. Human breast cancer cells lines DU4475, MDA-MB-436, and MDA-MB-468 were purchased from ATCC and cultured in DMEM supplemented with 10% fetal bovine serum, 1× Glutamax and Penicillin/Streptomycin. Cells were maintained at a subconfluent state by passaging every 2-3 days. […]
In order to determine the effect of a pulse of doxorubicin in combination with a DNA-PK inhibitor on pKAP1 and pH2AX levels, which would more closely simulate an in vivo administration of doxorubicin, MDA-MB-468 breast cancer cells were pre-incubated with 1 μM Compound B-2 for 15 min, followed by addition of 500 nM doxorubicin. […] Cells were harvested 8 h from initial doxorubicin exposure, and analyzed for levels of pKAP1 and pH2AX by immunoblotting. […]

For [2H]c1nc(C)nc([2H])c1-c1cc(NC[C@@H](C)c2cccc3c(C(=O)NC)ccnc23)ncn1 [Compound B-2], the “pKAP1 and pH2AX levels vs doxorubicin alone” value was “enhanced levels”.

Reference: patent US11980633B2, “Method for treating cancer using a combination of DNA-damaging agents and DNA-PK inhibitors” (Vertex Pharmaceuticals Incorporated, priority 2016, dated 2024)
